What was measured:
Test in all cases: relative viability (nuclei count vs DMSO), 5 days (fraction); higher = more cells survive
[1] = system: 201T
How it was run: (§1)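 Medians of duplicate plates are given as relative viability. That measure is the nuclei count in treated wells divided by the count in vehicle wells. Counts were taken on 4× images of lung cancer cell lines in 1536-well plates, 5 days after pin-tool dosing the day after seeding with one drug alone or a fixed anchor-drug dose plus five library-drug doses (not always all listed) in √10 steps.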

[2] = system: BEN
How it was run: as §1

[3] = system: COR-L 105
How it was run: as §1

[4] = system: EKVX
How it was run: as §1

[5] = system: EPLC-272H
How it was run: as §1

[6] = system: H3255
How it was run: as §1

[7] = system: HCC-44
How it was run: as §1

[8] = system: HCC-827
How it was run: as §1

[9] = system: LCLC-97TM1
How it was run: as §1

[10] = system: LOU-NH91
How it was run: as §1

[11] = system: LU99A
How it was run: as §1

[12] = system: NCI-H1437
How it was run: as §1

[13] = system: NCI-H1666
How it was run: as §1

[14] = system: NCI-H1975
How it was run: as §1

[15] = system: NCI-H2085
How it was run: as §1

[16] = system: NCI-H2087
How it was run: as §1

[17] = system: NCI-H2170
How it was run: as §1

[18] = system: NCI-H2342
How it was run: as §1

[19] = system: NCI-H647
How it was run: as §1

[20] = system: NCI-H650
How it was run: as §1

[21] = system: PC-3 [JPC-3]
How it was run: as §1

[22] = system: SW 1573
How it was run: as §1

`O=c1cc(N2CCOCC2)oc2c(-c3cccc4c3sc3ccccc34)cccc12` + CCNC(=O)c1noc(-c2cc(C(C)C)c(O)cc2O)c1-c1ccc(CN2CCOCC2)cc1 [Luminespib] (partner 0.01 µM) was tested, and the relative viability ([1]; first compound 0.01 µM) was 0.961, the relative viability ([1]; first compound 0.03162 µM) was 1.1 and the relative viability ([1]; first compound 0.1 µM) was 1.03. For the same molecule, the relative viability ([1]; first compound 0.3162 µM) was 1.02, the relative viability ([1]; first compound 1 µM) was 0.996 and the relative viability ([2]; first compound 0.01 µM) was 0.298. It also gave a relative viability ([2]; first compound 0.03162 µM) of 0.359, a relative viability ([2]; first compound 0.1 µM) of 0.236 and a relative viability ([2]; first compound 0.3162 µM) of 0.497. It also gave a relative viability ([2]; first compound 1 µM) of 0.318, a relative viability ([3]; first compound 0.01 µM) of 0.738 and a relative viability ([3]; first compound 0.03162 µM) of 0.739. For the same molecule, the relative viability ([3]; first compound 0.1 µM) was 0.758, the relative viability ([3]; first compound 0.3162 µM) was 0.754 and the relative viability ([3]; first compound 1 µM) was 0.603. It also gave a relative viability ([4]; first compound 0.01 µM) of 0.9, a relative viability ([4]; first compound 0.03162 µM) of 0.872 and a relative viability ([4]; first compound 0.1 µM) of 0.878. It also gave a relative viability ([4]; first compound 0.3162 µM) of 0.917, a relative viability ([4]; first compound 1 µM) of 0.891 and a relative viability ([5]; first compound 0.01 µM) of 0.244. For the same molecule, the relative viability ([5]; first compound 0.03162 µM) was 0.449, the relative viability ([5]; first compound 0.3162 µM) was 0.19 and the relative viability ([5]; first compound 1 µM) was 0.281. For the same molecule, the relative viability ([6]; first compound 0.01 µM) was 0.885, the relative viability ([6]; first compound 0.03162 µM) was 0.991 and the relative viability ([6]; first compound 0.1 µM) was 0.948. The relative viability ([6]; first compound 0.3162 µM) was 0.909, the relative viability ([6]; first compound 1 µM) was 0.945 and the relative viability ([7]; first compound 0.01 µM) was 1.02. The relative viability ([7]; first compound 0.03162 µM) was 1.01, the relative viability ([7]; first compound 0.1 µM) was 1.31 and the relative viability ([7]; first compound 0.3162 µM) was 0.998. It also gave a relative viability ([7]; first compound 1 µM) of 1.11, a relative viability ([8]; first compound 0.01 µM) of 0.642 and a relative viability ([8]; first compound 0.03162 µM) of 0.541. It also gave a relative viability ([8]; first compound 0.1 µM) of 0.626, a relative viability ([8]; first compound 0.3162 µM) of 0.629 and a relative viability ([8]; first compound 1 µM) of 0.71. The relative viability ([9]; first compound 0.01 µM) was 0.621, the relative viability ([9]; first compound 0.03162 µM) was 0.796 and the relative viability ([9]; first compound 0.1 µM) was 0.827. The relative viability ([9]; first compound 0.3162 µM) was 0.759, the relative viability ([9]; first compound 1 µM) was 0.728 and the relative viability ([10]; first compound 0.01 µM) was 0.352. It also gave a relative viability ([10]; first compound 0.03162 µM) of 0.318, a relative viability ([10]; first compound 0.1 µM) of 0.33 and a relative viability ([10]; first compound 0.3162 µM) of 0.373. It also gave a relative viability ([10]; first compound 1 µM) of 0.36, a relative viability ([11]; first compound 0.01 µM) of 0.266 and a relative viability ([11]; first compound 0.03162 µM) of 0.23. The relative viability ([11]; first compound 0.1 µM) was 0.232, the relative viability ([11]; first compound 0.3162 µM) was 0.267 and the relative viability ([11]; first compound 1 µM) was 0.183. The relative viability ([12]; first compound 0.01 µM) was 0.835, the relative viability ([12]; first compound 0.03162 µM) was 1.03 and the relative viability ([12]; first compound 0.1 µM) was 1.1. For the same molecule, the relative viability ([12]; first compound 0.3162 µM) was 1.08, the relative viability ([12]; first compound 1 µM) was 1.04 and the relative viability ([13]; first compound 0.01 µM) was 0.889. The relative viability ([13]; first compound 0.03162 µM) was 1.01, the relative viability ([13]; first compound 0.1 µM) was 0.995 and the relative viability ([13]; first compound 0.3162 µM) was 0.969. It also gave a relative viability ([13]; first compound 1 µM) of 0.93, a relative viability ([14]; first compound 0.01 µM) of 0.198 and a relative viability ([14]; first compound 0.03162 µM) of 0.242. The relative viability ([14]; first compound 0.1 µM) was 0.202, the relative viability ([14]; first compound 0.3162 µM) was 0.271 and the relative viability ([14]; first compound 1 µM) was 0.227. The relative viability ([15]; first compound 0.01 µM) was 0.407, the relative viability ([15]; first compound 0.03162 µM) was 0.427 and the relative viability ([15]; first compound 0.1 µM) was 0.534. It also gave a relative viability ([15]; first compound 0.3162 µM) of 0.49, a relative viability ([15]; first compound 1 µM) of 0.48 and a relative viability ([16]; first compound 0.01 µM) of 0.148. The relative viability ([16]; first compound 0.03162 µM) was 0.146, the relative viability ([16]; first compound 0.1 µM) was 0.173 and the relative viability ([16]; first compound 0.3162 µM) was 0.237. The relative viability ([16]; first compound 1 µM) was 0.169, the relative viability ([17]; first compound 0.01 µM) was 0.445 and the relative viability ([17]; first compound 0.03162 µM) was 0.668. It also gave a relative viability ([17]; first compound 0.1 µM) of 0.654, a relative viability ([17]; first compound 0.3162 µM) of 0.548 and a relative viability ([17]; first compound 1 µM) of 0.744. The relative viability ([18]; first compound 0.01 µM) was 0.667, the relative viability ([18]; first compound 0.03162 µM) was 0.58 and the relative viability ([18]; first compound 0.1 µM) was 0.696. For the same molecule, the relative viability ([18]; first compound 0.3162 µM) was 0.586, the relative viability ([18]; first compound 1 µM) was 0.742 and the relative viability ([19]; first compound 0.01 µM) was 0.132. The relative viability ([19]; first compound 0.03162 µM) was 0.115, the relative viability ([19]; first compound 0.1 µM) was 0.101 and the relative viability ([19]; first compound 0.3162 µM) was 0.259. The relative viability ([19]; first compound 1 µM) was 0.209, the relative viability ([20]; first compound 0.03162 µM) was 0.846 and the relative viability ([20]; first compound 0.1 µM) was 0.638. It also gave a relative viability ([20]; first compound 0.3162 µM) of 0.917, a relative viability ([20]; first compound 1 µM) of 0.813 and a relative viability ([21]; first compound 0.01 µM) of 0.711. For the same molecule, the relative viability ([21]; first compound 0.03162 µM) was 0.694, the relative viability ([21]; first compound 0.1 µM) was 0.689 and the relative viability ([21]; first compound 0.3162 µM) was 0.695. It also gave a relative viability ([21]; first compound 1 µM) of 0.634, a relative viability ([22]; first compound 0.01 µM) of 0.419 and a relative viability ([22]; first compound 0.03162 µM) of 0.205. The relative viability ([22]; first compound 0.1 µM) was 0.211, the relative viability ([22]; first compound 0.3162 µM) was 0.735 and the relative viability ([22]; first compound 1 µM) was 0.218.

Source: the supplement of paper PMC10307832
